Converted amounts (≈) assume the structure as drawn.

The nature of data set [1]: in vivo. To be noted: mouse, po, 5 mg/kg.
Data set [2] is described as follows: physchem. The note with it: SIF, pH 6.8.
A short description of data set [3]: Cmax in mouse at 5 mg/kg, po. Details: dose 5 mg/kg, route oral. The note with it: in vivo. It is filed as ADME, organism-based.
A short description of data set [4]: Cmax in rat at 2 mg/kg, po. To be noted: in vivo. Set-up: dose 2 mg/kg, route oral. It is filed as ADME, organism-based.
A short description of data set [5]: Cmax in cynomolgus monkey at 2 mg/kg, po. It is filed as ADME, organism-based, Macaca fascicularis. Set-up: dose 2 mg/kg, route oral. To be noted: in vivo.
A short description of data set [6]: Cmax in dog at 2 mg/kg, po. It is filed as ADME, organism-based, Canis lupus familiaris. Details: dose 2 mg/kg, route oral. To be noted: in vivo.
Data set [7] in a line: Tmax in mouse at 5 mg/kg, po or 1 mg/kg, iv. It is filed as ADME, organism-based. To be noted: in vivo.
A short description of data set [8]: Tmax in rat at 2 mg/kg, po or 0.5 mg/kg, iv. It is filed as ADME, organism-based. The note with it: in vivo.
Data set [9] in a line: Tmax in cynomolgus monkey at 2 mg/kg, po or 0.5 mg/kg, iv. It is filed as ADME, organism-based, Macaca fascicularis. To be noted: in vivo.
Data set [10] in a line: Tmax in dog at 2 mg/kg, po or 0.5 mg/kg, iv. It is filed as ADME, organism-based, Canis lupus familiaris. The note with it: in vivo.
The nature of data set [11]: Clearance in mouse at 5 mg/kg, po or 1 mg/kg, iv. To be noted: in vivo. It is filed as ADME, organism-based.
A short description of data set [12]: Clearance in rat at 2 mg/kg, po or 0.5 mg/kg, iv. It is filed as ADME, organism-based. The note with it: in vivo.
The nature of data set [13]: Clearance in cynomolgus monkey at 2 mg/kg, po or 0.5 mg/kg, iv. It is filed as ADME, organism-based, Macaca fascicularis. To be noted: in vivo.
Data set [14] can be described thus: Clearance in dog at 2 mg/kg, po or 0.5 mg/kg, iv. The note with it: in vivo. It is filed as ADME, organism-based, Canis lupus familiaris.
Data set [15] in a line: Volume of distribution at steady state in mouse at 5 mg/kg, po or 1 mg/kg, iv. It is filed as ADME, organism-based. To be noted: in vivo, read-out: Vdss.
The nature of data set [16]: Volume of distribution at steady state in rat at 2 mg/kg, po or 0.5 mg/kg, iv. It is filed as ADME, organism-based. The note with it: in vivo, read-out: Vdss.
The nature of data set [17]: Volume of distribution at steady state in cynomolgus monkey at 2 mg/kg, po or 0.5 mg/kg, iv. To be noted: in vivo, read-out: Vdss. It is filed as ADME, organism-based, Macaca fascicularis.
A short description of data set [18]: Volume of distribution at steady state in dog at 2 mg/kg, po or 0.5 mg/kg, iv. It is filed as ADME, organism-based, Canis lupus familiaris. The note with it: in vivo, read-out: Vdss.
Data set [19] is described as follows: Half life in mouse at 1 mg/kg, iv. It is filed as ADME, organism-based. The note with it: in vivo.
The nature of data set [20]: Half life in rat at 0.5 mg/kg, iv. It is filed as ADME, organism-based. The note with it: in vivo.
A short description of data set [21]: Half life in cynomolgus monkey at 0.5 mg/kg, iv. It is filed as ADME, organism-based, Macaca fascicularis. To be noted: in vivo.
Data set [22] in a line: Half life in dog at 0.5 mg/kg, iv. It is filed as ADME, organism-based, Canis lupus familiaris. To be noted: in vivo.
Data set [23] can be described thus: Oral bioavailability in cynomolgus monkey at 2 mg/kg. The note with it: in vivo. It is filed as ADME, organism-based, Macaca fascicularis.
The nature of data set [24]: Oral bioavailability in dog at 2 mg/kg. It is filed as ADME, organism-based, Canis lupus familiaris. To be noted: in vivo.
A short description of data set [25]: Terminal plasma concentration in ob/ob mouse at 3 mg/kg, po administered 30 mins prior to testing by oral glucose tolerance test. It is filed as ADME, organism-based. The note with it: read-out: Cp(T).
Data set [26] is described as follows: Terminal plasma concentration in ob/ob mouse at 10 mg/kg, po administered 30 mins prior to testing by oral glucose tolerance test. To be noted: read-out: Cp(T). It is filed as ADME, organism-based.
Data set [27] is described as follows: Terminal plasma concentration in ob/ob mouse at 30 mg/kg, po administered 30 mins prior to testing by oral glucose tolerance test. It is filed as ADME, organism-based. To be noted: read-out: Cp(T).

On to `CNC(=O)Nc1cc(Oc2cncc(C)c2)c(-c2ccc(OCCO)nc2)cn1`, for which the bioavailability in data set [1] was determined as 6%. Further, in [2], the solubility is < 1 µM.

For `CNC(=O)Nc1cc(Oc2cncc(C)c2)c(-c2ccc(OCC(C)(C)O)nc2)cn1`, the Cmax stood at 350 nM in data set [3], 490 nM in data set [4], 1150 nM in data set [5] and 3520 nM in data set [6]. Further, the Tmax was 0.33 h in data set [7], 0.83 h in data set [8], 1.67 h in data set [9] and 1.33 h in [10]. In addition, the clearance is 6.17 mL/min/kg in [11], 27.3 mL/min/kg in data set [12], 10 mL/min/kg in data set [13] and 4.17 mL/min/kg in data set [14]. Further, the Vd in data set [15] stood at 0.59 L/kg; in data set [16], 2.18 L/kg; in data set [17], 2.29 L/kg; in data set [18], 1.49 L/kg. Moreover, the half-life is 2 h in data set [19], 1.4 h in [20], 6.7 h in data set [21] and 6.5 h in data set [22]. Also, the bioavailability in data set [23] is 70%; in data set [24], 99%; in data set [1], 25%. Further, the concentration at 0.5 h in data set [25] stood at 1200 nM; in [26], 3600 nM; in data set [27], 38000 nM. In data set [2], this molecule displayed a solubility of 46 µM (≈ 19.5 µg/mL).

Turning to `CNC(=O)Nc1cc(Oc2cncc(C)c2)c(-c2ccc(OC[C@H](C)O)nc2)cn1`, the solubility in [2] stood at 176 µM (≈ 72.1 µg/mL).

Regarding `CNC(=O)Nc1cc(Oc2cncc(C)c2)c(-c2ccc(OC[C@@H](C)O)nc2)cn1`, in data set [2], the concentration in solution (solubility) came to 226 µM (≈ 92.5 µg/mL).

For orientation: bioavailability means dose-corrected exposure relative to a reference, in per cent. By solubility is commonly meant the concentration that dissolves in the medium under given conditions. Broadly, the Cmax is the peak of the concentration-time curve. Broadly, the Tmax is the time from dosing to the highest level. By half-life is commonly meant the time in which the quantity being followed falls by half.

For the origin of these results see ChEMBL document CHEMBL4425170, “Novel Series of Potent Glucokinase Activators Leading to the Discovery of AM-2394” (ACS Med Chem Lett, 2016).
